We go through one compound from US20250160678A1, “GRAPHENE SENSOR SYSTEMS FOR C[…] ANALYSIS” (VOCxI Health, Inc., priority 2023, published 2025).

Each structure is given as a SMILES string.

The series can be described thus: elimination curves of cannabinoids after ingestion (FIG. 2). The series is classed as in vivo. As to conditions: time of Test 2 (which may be two hours after cannabinoid ingestion). An excerpt: Referring now to FIG. 1, a chart is shown of elimination curves of various cannabinoids. […] The relative amounts of cannabinoid metabolites (e.g., intermediate or final breakdown products of cannabinoid compounds in the body) will also vary with time after an ingestion event.
As previously referenced, the relative amounts of one cannabinoid compound to another and/or metabolites thereof will vary with time after an ingestion event because their different half-lives in the body. As such, a pattern of compounds captured with a system herein at time point that is closer to the time of ingestion will be different than a pattern of compounds captured at a later time. Referring now to FIG. 2, a chart is shown of elimination curves of various cannabinoids. […] In this example, exemplary test times are shown in the form of Test 1, Test 2, and Test 3, with each test being progressively spaced out farther away in time from the time of ingestion. […] Because of this, patterns as identified by systems herein are different at each test time. For example, at the time of Test 1 (which may be a half-hour after cannabinoid ingestion) the amount of CBN is roughly 80 to 90 percent of the amount of THC. In contrast, at the time of Test 2 (which may be two hours after cannabinoid ingestion) the amount of CBN is only about 50 percent of the amount of THC. […]

In the case of `CCCCCc1cc(O)c2c(c1)OC(C)(C)c1ccc(C)cc1-2` [CBN, cannabinol], the “amount of CBN as percent of the amount of THC” value is recorded as “about 50%”.
